# Measured values reported in patent US20260325533A1, “CDK INHIBITOR COMPOUNDS” (ALEKSIA THERAPEUTICS, INC., priority 2023, published 2026).
# pIC50: −log10 of the molar value. Where two headings read alike, the source gives them in different places.
# Legend:
# Type in all cases: biochemical
# [1] = biological target: CDK4/CCND3 (Homo sapiens, UniProt P11802); test: CDK4 homogeneous time-resolved fluorescence (HTRF) kinase assay; conditions: CDK4/CCND
# Method in brief: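 Steps: compound plus 1.5 nM CDK4/CCND3, 20 min, 23 °C; add 1 mM ATP and 50 nM ULight-4E-BP1 (Thr37/46) peptide, 60 min; stop with 10 mM EDTA; add 2 nM Eu anti-phospho antibody, 60 min; read 665 nm. IC50 from 11-point half-log series starting 10 μM.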
# [2] = biological target: CDK2/CCNE1 (Homo sapiens, UniProt P24941); test: CDK2 homogeneous time-resolved fluorescence (HTRF) kinase assay; conditions: CDK2/CCNE
# Method in brief: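 3 nM CDK2/CCNE1 was preincubated with compound for 20 min at 23 °C in HEPES buffer (pH not stated), then reacted 60 min with 1 mM ATP and 50 nM ULight-4E-BP1 (Thr37/46) peptide. After EDTA stop, Eu-anti-phospho-4E-BP1 antibody (2 nM) was added for 60 min and TR-FRET read at 665 nm.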
# [3] = biological target: CDK1/CCNB1 (Homo sapiens, UniProt P06493); test: CDK1 homogeneous time-resolved fluorescence (HTRF) kinase assay; conditions: CDK1/CCNB
# Method in brief: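 HTRF assay with 0.5 nM CDK1/CCNB1, 1 mM ATP, 50 nM ULight-eIF4E-BP1 (Thr37/46) peptide; compound preincubated 20 min, reaction 60 min at 23 °C, EDTA stop, Eu-anti-phospho antibody detection. 11-point half-log titration from 10 μM, 1% DMSO; IC50 from 665 nm or 665/615 signal.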
# [4] = biological target: CDK6/CCND1 (Homo sapiens, UniProt Q00534); test: CDK6 homogeneous time-resolved fluorescence (HTRF) kinase assay; conditions: CDK6/CCND, 1 mM ATP
# Method in brief: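 Enzyme pre-incubated 20 min at 23 °C with compound, then reacted 60 min at 23 °C with 1 mM ATP and 50 nM ULight-4E-BP1 (Thr37/46) peptide; 1 nM enzyme, 1% DMSO. EDTA-stopped, Eu-anti-phospho antibody TR-FRET read (665 nm or 665/615 ratio); 11-point half-log titration from 10 μM gave IC50.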
# [5] = >250 nM, read-out: CDK4/CCND IC50, >250 nM
# [6] = 25-250 nM, read-out: CDK2/CCNE IC50, 25-250 nM
# [7] = >250 nM, read-out: CDK1/CCNB IC50 >250 nM
# [8] = >250 nM, read-out: CDK6/CCND IC50, >250 nM
# [9] = <25 nM, read-out: CDK2/CCNE IC50, <25 nM
# [10] = 25-250 nM, read-out: CDK6/CCND IC50, 25-250 nM
# [11] = 25-250 nM, read-out: CDK1/CCNB IC50, 25-250 nM
# [12] = 25-250 nM, read-out: CDK4/CCND IC50, 25-250 nM
# Sequence of CDK4/CCND3 (P11802 whole entry): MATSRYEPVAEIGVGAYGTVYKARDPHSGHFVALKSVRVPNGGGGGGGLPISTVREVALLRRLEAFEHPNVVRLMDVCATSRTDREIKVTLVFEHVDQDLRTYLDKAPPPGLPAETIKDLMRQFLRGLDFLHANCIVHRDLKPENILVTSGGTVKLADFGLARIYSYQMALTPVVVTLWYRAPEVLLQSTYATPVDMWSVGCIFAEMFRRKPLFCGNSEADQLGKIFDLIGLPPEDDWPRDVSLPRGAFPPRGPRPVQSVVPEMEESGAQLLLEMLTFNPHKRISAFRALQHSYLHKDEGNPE
# Sequence of CDK4/CCND3 (P30281 whole entry partner): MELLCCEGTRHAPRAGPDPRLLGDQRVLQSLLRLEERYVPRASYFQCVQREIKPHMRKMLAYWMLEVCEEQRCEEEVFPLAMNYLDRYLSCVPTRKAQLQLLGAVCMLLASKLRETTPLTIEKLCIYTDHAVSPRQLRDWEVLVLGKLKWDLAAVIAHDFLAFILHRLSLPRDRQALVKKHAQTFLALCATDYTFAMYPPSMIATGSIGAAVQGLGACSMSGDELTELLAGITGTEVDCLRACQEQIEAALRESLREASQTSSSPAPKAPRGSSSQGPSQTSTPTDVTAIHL
# Sequence of CDK6/CCND1 (Q00534 whole entry): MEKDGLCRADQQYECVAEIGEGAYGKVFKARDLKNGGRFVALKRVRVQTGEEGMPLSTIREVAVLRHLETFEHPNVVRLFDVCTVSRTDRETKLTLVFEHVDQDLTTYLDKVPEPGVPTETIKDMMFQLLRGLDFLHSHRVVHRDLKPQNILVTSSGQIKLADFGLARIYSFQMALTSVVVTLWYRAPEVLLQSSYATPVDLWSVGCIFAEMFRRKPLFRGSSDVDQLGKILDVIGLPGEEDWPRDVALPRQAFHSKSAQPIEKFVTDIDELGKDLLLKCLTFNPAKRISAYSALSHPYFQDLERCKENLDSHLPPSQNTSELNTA
# Sequence of CDK6/CCND1 (P24385 whole entry partner): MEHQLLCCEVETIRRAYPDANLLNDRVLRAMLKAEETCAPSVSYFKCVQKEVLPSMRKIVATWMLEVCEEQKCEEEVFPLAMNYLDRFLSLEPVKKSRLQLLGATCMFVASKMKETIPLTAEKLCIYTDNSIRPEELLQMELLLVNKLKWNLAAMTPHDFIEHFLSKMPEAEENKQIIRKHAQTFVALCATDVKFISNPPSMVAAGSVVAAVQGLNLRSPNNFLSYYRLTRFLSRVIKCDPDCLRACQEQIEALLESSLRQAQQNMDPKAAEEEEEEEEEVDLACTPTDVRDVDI
# Sequence of CDK1/CCNB1 (P06493 whole entry): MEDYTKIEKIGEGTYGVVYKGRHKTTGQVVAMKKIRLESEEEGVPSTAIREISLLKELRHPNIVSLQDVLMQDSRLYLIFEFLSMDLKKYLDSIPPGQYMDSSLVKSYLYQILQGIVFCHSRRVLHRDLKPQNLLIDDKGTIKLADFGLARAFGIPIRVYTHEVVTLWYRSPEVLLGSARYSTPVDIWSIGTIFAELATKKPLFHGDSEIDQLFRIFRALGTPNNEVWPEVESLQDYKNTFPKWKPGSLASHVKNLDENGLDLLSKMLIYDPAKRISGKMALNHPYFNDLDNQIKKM
# Sequence of CDK1/CCNB1 (P14635 whole entry partner): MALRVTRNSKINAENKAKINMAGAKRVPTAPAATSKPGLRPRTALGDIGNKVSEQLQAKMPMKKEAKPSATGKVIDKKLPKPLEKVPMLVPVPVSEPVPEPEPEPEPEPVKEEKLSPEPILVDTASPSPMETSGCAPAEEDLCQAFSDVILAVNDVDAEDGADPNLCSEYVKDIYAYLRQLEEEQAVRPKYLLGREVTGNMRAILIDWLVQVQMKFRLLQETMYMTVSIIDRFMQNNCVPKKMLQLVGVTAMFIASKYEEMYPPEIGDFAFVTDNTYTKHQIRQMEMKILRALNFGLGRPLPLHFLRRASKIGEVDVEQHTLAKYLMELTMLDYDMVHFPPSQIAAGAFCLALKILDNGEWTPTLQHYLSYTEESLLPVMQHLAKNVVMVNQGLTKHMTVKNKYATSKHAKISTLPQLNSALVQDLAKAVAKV
Compound,"pIC50 [1, 5]","pIC50 [2, 6]","pIC50 [3, 7]","pIC50 [4, 8]","pIC50 [2, 9]","pIC50 [4, 10]","pIC50 [3, 11]","pIC50 [1, 12]"
"Cc1cc(C)cc(NS(=O)(=O)c2ccc(Nc3cc4c(-c5ccc6c(cnn6CC(C)(C)O)c5C)nccc4cn3)cc2)c1 [Ex 808, N-(3,5-dimethylphenyl)-4-((5-(1-(2-hydroxy-2-methylpropyl)-4-methyl-1H-indazol-5-yl)-2,6-naphthyridin-3-yl)amino)benzenesulfonamide]",< 6.60,6.60 to 7.60,< 6.60,< 6.60,–,–,–,–
"Cc1c(-c2nccc3cnc(Nc4ccc(S(=O)(=O)Nc5ccccc5)cc4)cc23)ccc2c1cnn2CC(C)(C)O [Ex 809, 4-((5-(1-(2-hydroxy-2-methylpropyl)-4-methyl-1H-indazol-5-yl)-2,6-naphthyridin-3-yl)amino)-N-phenylbenzenesulfonamide]",< 6.60,–,< 6.60,< 6.60,> 7.60,–,–,–
"Cc1c(-c2nccc3cnc(Nc4ccc(S(=O)(=O)Nc5ccc(C(C)(C)O)cn5)cc4)cc23)ccc2c1cnn2CC(C)(C)O [Ex 810, 4-((5-(1-(2-hydroxy-2-methylpropyl)-4-methyl-1H-indazol-5-yl)-2,6-naphthyridin-3-yl)amino)-N-(5-(2-hydroxypropan-2-yl)pyridin-2-yl)benzenesulfonamide]",< 6.60,–,< 6.60,–,> 7.60,6.60 to 7.60,–,–
"Cc1c(-c2nccc3cnc(Nc4ccc(S(=O)(=O)Nc5cccc(C(C)(C)O)n5)cc4)cc23)ccc2c1cnn2CC(C)(C)O [Ex 811, 4-((5-(1-(2-hydroxy-2-methylpropyl)-4-methyl-1H-indazol-5-yl)-2,6-naphthyridin-3-yl)amino)-N-(6-(2-hydroxypropan-2-yl)pyridin-2-yl)benzenesulfonamide]",< 6.60,–,–,< 6.60,> 7.60,–,6.60 to 7.60,–
"COc1cccc(NS(=O)(=O)c2ccc(Nc3cc4c(-c5ccc6c(cnn6CC(C)(C)O)c5C)nccc4cn3)cc2)n1 [Ex 812, 4-((5-(1-(2-hydroxy-2-methylpropyl)-4-methyl-1H-indazol-5-yl)-2,6-naphthyridin-3-yl)amino)-N-(6-methoxypyridin-2-yl)benzenesulfonamide]",< 6.60,–,< 6.60,< 6.60,> 7.60,–,–,–
"COc1ccnc(NS(=O)(=O)c2ccc(Nc3cc4c(-c5ccc6c(cnn6CC(C)(C)O)c5C)nccc4cn3)cc2)c1 [Ex 813, 4-((5-(1-(2-hydroxy-2-methylpropyl)-4-methyl-1H-indazol-5-yl)-2,6-naphthyridin-3-yl)amino)-N-(4-methoxypyridin-2-yl)benzenesulfonamide]",< 6.60,–,< 6.60,–,> 7.60,6.60 to 7.60,–,–
"COc1cc(NS(=O)(=O)c2ccc(Nc3cc4c(-c5ccc6c(cnn6CC(C)(C)O)c5C)nccc4cn3)cc2)nc(OC)c1 [Ex 814, N-(4,6-dimethoxypyridin-2-yl)-4-((5-(1-(2-hydroxy-2-methylpropyl)-4-methyl-1H-indazol-5-yl)-2,6-naphthyridin-3-yl)amino)benzenesulfonamide]",< 6.60,–,< 6.60,< 6.60,> 7.60,–,–,–
"Cc1c(-c2nccc3cnc(Nc4ccc(S(=O)(=O)Nc5cccc(C(F)(F)F)n5)cc4)cc23)ccc2c1cnn2CC(C)(C)O [Ex 815, 4-((5-(1-(2-hydroxy-2-methylpropyl)-4-methyl-1H-indazol-5-yl)-2,6-naphthyridin-3-yl)amino)-N-(6-(trifluoromethyl)pyridin-2-yl)benzenesulfonamide]",< 6.60,–,–,< 6.60,> 7.60,–,6.60 to 7.60,–
"Cc1c(-c2nccc3cnc(Nc4ccc(S(=O)(=O)Nc5cc(C(F)(F)F)ccn5)cc4)cc23)ccc2c1cnn2CC(C)(C)O [Ex 816, 4-((5-(1-(2-hydroxy-2-methylpropyl)-4-methyl-1H-indazol-5-yl)-2,6-naphthyridin-3-yl)amino)-N-(4-(trifluoromethyl)pyridin-2-yl)benzenesulfonamide]",< 6.60,–,< 6.60,< 6.60,> 7.60,–,–,–
"Cc1cccc(NS(=O)(=O)c2ccc(Nc3cc4c(-c5ccc6c(cnn6CC(C)(C)O)c5C)nccc4cn3)cc2)n1 [Ex 817, 4-((5-(1-(2-hydroxy-2-methylpropyl)-4-methyl-1H-indazol-5-yl)-2,6-naphthyridin-3-yl)amino)-N-(6-methylpyridin-2-yl)benzenesulfonamide]",–,–,< 6.60,–,> 7.60,6.60 to 7.60,–,6.60 to 7.60
"Cc1cc(C)nc(NS(=O)(=O)c2ccc(Nc3cc4c(-c5ccc6c(cnn6CC(C)(C)O)c5C)nccc4cn3)cc2)c1 [Ex 818, N-(4,6-dimethylpyridin-2-yl)-4-((5-(1-(2-hydroxy-2-methylpropyl)-4-methyl-1H-indazol-5-yl)-2,6-naphthyridin-3-yl)amino)benzenesulfonamide]",–,–,< 6.60,–,> 7.60,6.60 to 7.60,–,6.60 to 7.60
"Cc1c(-c2nccc3cnc(Nc4ccc(NS(=O)(=O)c5cccc6nsnc56)cc4)cc23)ccc2c1cnn2CC(C)(C)O [Ex 819, N-(4-((5-(1-(2-hydroxy-2-methylpropyl)-4-methyl-1H-indazol-5-yl)-2,6-naphthyridin-3-yl)amino)phenyl)benzo[c][1,2,5]thiadiazole-4-sulfonamide]",< 6.60,6.60 to 7.60,< 6.60,< 6.60,–,–,–,–
"Cc1c(-c2nccc3cnc(Nc4ccc(NS(=O)(=O)c5cccc6nn(C)cc56)cc4)cc23)ccc2c1cnn2CC(C)(C)O [Ex 820, N-(4-((5-(1-(2-hydroxy-2-methylpropyl)-4-methyl-1H-indazol-5-yl)-2,6-naphthyridin-3-yl)amino)phenyl)-2-methyl-2H-indazole-4-sulfonamide]",< 6.60,6.60 to 7.60,< 6.60,< 6.60,–,–,–,–
"Cc1c(-c2nccc3cnc(Nc4ccc(NS(=O)(=O)c5cccc6nonc56)cc4)cc23)ccc2c1cnn2CC(C)(C)O [Ex 821, N-(4-((5-(1-(2-hydroxy-2-methylpropyl)-4-methyl-1H-indazol-5-yl)-2,6-naphthyridin-3-yl)amino)phenyl)benzo[c][1,2,5]oxadiazole-4-sulfonamide]",< 6.60,–,< 6.60,< 6.60,> 7.60,–,–,–
"Cc1c(-c2nccc3cnc(Nc4ccc(NS(=O)(=O)c5cncc(Cl)c5)cc4)cc23)ccc2c1cnn2CC(C)(C)O [Ex 822, 5-chloro-N-(4-((5-(1-(2-hydroxy-2-methylpropyl)-4-methyl-1H-indazol-5-yl)-2,6-naphthyridin-3-yl)amino)phenyl)pyridine-3-sulfonamide]",< 6.60,–,< 6.60,< 6.60,> 7.60,–,–,–
"Cc1ccc(S(=O)(=O)Nc2ccc(Nc3cc4c(-c5ccc6c(cnn6CC(C)(C)O)c5C)nccc4cn3)cc2)cn1 [Ex 823, N-(4-((5-(1-(2-hydroxy-2-methylpropyl)-4-methyl-1H-indazol-5-yl)-2,6-naphthyridin-3-yl)amino)phenyl)-6-methylpyridine-3-sulfonamide]",–,–,–,–,> 7.60,6.60 to 7.60,6.60 to 7.60,6.60 to 7.60
"Cc1c(-c2nccc3cnc(Nc4ccc(NS(=O)(=O)c5cnn(-c6ccccn6)c5)cc4)cc23)ccc2c1cnn2CC(C)(C)O [Ex 824, N-(4-((5-(1-(2-hydroxy-2-methylpropyl)-4-methyl-1H-indazol-5-yl)-2,6-naphthyridin-3-yl)amino)phenyl)-1-(pyridin-2-yl)-1H-pyrazole-4-sulfonamide]",< 6.60,6.60 to 7.60,< 6.60,< 6.60,–,–,–,–
"Cc1c(-c2nccc3cnc(Nc4ccc(NS(=O)(=O)c5ccoc5)cc4)cc23)ccc2c1cnn2CC(C)(C)O [Ex 825, N-(4-((5-(1-(2-hydroxy-2-methylpropyl)-4-methyl-1H-indazol-5-yl)-2,6-naphthyridin-3-yl)amino)phenyl)furan-3-sulfonamide]",–,–,–,–,> 7.60,6.60 to 7.60,6.60 to 7.60,6.60 to 7.60
